The source of these data is ChEMBL document CHEMBL4373702, “Intracellular Trapping of the Selective Phosphoglycerate Dehydrogenase (PHGDH) Inhibitor BI-4924 Disrupts Serine Biosynthesis” (J Med Chem, 2019).

The nature of series [1]: Half life in 10% fetal calf serum. Particulars: cattle. Format: ADME, cell-free, Bos taurus.
A short description of series [2]: Drug uptake in human MDA-MB-468 cells assessed as BI-4924 levels at 3 uM measured up to 72 hrs. The class given is ADME, cell-based. As to conditions: mda-mb-468, 72 h, TDE = time-dependent effect.
For series [3], the target named is T1, D-3-phosphoglycerate dehydrogenase (Homo sapiens, UniProt O43175).
T1 sequence (O43175 whole entry): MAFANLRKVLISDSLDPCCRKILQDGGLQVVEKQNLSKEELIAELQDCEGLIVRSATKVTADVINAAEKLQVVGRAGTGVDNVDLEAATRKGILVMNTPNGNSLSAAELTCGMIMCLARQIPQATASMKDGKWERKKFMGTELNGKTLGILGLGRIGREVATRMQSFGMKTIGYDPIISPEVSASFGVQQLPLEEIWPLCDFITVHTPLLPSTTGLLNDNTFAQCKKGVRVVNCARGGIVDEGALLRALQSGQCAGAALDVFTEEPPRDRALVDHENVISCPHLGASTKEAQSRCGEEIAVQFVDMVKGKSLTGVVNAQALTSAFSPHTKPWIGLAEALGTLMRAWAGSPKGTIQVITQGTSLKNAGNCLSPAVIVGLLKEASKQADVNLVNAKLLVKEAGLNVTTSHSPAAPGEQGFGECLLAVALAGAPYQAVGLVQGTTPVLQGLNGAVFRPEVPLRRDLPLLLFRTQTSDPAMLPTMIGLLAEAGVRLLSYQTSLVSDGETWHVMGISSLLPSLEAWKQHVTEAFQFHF
As to the kind of experiment: Inhibition of PHGDH in human MDA-MB-468 cells assessed as reduction in [13C]-serine incubated for 72 hrs using [13C]glucose as substrate by LC-MS/MS analysis. The class given is cell-based.

Series [4] has as its target T1, D-3-phosphoglycerate dehydrogenase. The series is described as follows: Inhibition of PHGDH in human MDA-MB-468 cells assessed as reduction in [13C]-serine incubated for 1 hr using [13C]glucose as substrate by LC-MS/MS analysis. The class given is cell-based.
Series [5] can be described thus: Drug uptake in human MDA-MB-468 cells assessed as BI-4924 levels at 3 uM measured up to 72 hrs relative to control. The class given is ADME, cell-based. Particulars: mda-mb-468, 72 h.
A short description of series [6]: Half life in mouse serum. Format: ADME, cell-free.
A short description of series [7]: Permeability from basolateral to apical side in human Caco2 cells. The class given is ADME, cell-based. As to conditions: caco-2.
The nature of series [8]: Solubility pH 4.5 buffer. The class given is physicochemical.
Series [9] is described as follows: Stability in mouse hepatocytes relative to hepatic blood flow. Format: ADME, cell-based, Hepatocyte. Particulars: read-out: Stability.
Series [10] can be described thus: Efflux ratio of permeability from apical to basolateral side over basolateral to apical side in human Caco2 cells. The class given is ADME, cell-based. As to conditions: caco-2.
Series [11] is described as follows: Permeability from apical to basolateral side in human Caco2 cells. Format: ADME, cell-based. Particulars: caco-2.
Series [12] is described as follows: Stability in human liver microsomes relative to hepatic blood flow. Format: ADME, Microsome. Particulars: read-out: Stability. Background: Microsomes from liver hold many membrane-bound enzymes, among them those of drug oxidation.
A short description of series [13]: Protein binding in 10% fetal calf serum. The class given is ADME, cell-free, Bos taurus. As to conditions: cattle, read-out: PB (converted).
Series [14] addresses Alcohol dehydrogenase class-3 (Homo sapiens) (UniProt P11766). As to the kind of experiment: Binding affinity to Alcohol dehydrogenase class-3 in human MDA-MB-468 cells at 10 uM incubated for 2 hrs in presence of 12-amino-2-[4-[(1S)-1-[(4,5-dichloro-1,6-dimethyl-indole-2-carbonyl)amino]-2-hydroxy-ethyl]phenyl]sulfonyl-dodecanoic acid by quantitative chemical proteomics assay. Format: cell-based.

The nature of series [15]: Solubility pH 6.8 buffer. Format: physicochemical.
Series [16] can be described thus: Stability in mouse liver microsomes relative to hepatic blood flow. The class given is ADME, Microsome. Particulars: read-out: Stability.
In series [17] the target is Alcohol dehydrogenase class-3 (Homo sapiens) (UniProt P11766). The series is described as follows: Binding affinity to Alcohol dehydrogenase class-3 in human MDA-MB-468 cells at 10 uM incubated for 2 hrs in presence of 2-[4-[(1S)-1-[[6-(10-aminodecyl)-4,5-dichloro-1-methyl-indole-2-carbonyl]amino]-2-hydroxy-ethyl]phenyl]sulfonylacetic acid by quantitative chemical proteomics assay. Format: cell-based.
Sequence of Alcohol dehydrogenase class-3 (Homo sapiens) (P11766 2-374 limits assumed): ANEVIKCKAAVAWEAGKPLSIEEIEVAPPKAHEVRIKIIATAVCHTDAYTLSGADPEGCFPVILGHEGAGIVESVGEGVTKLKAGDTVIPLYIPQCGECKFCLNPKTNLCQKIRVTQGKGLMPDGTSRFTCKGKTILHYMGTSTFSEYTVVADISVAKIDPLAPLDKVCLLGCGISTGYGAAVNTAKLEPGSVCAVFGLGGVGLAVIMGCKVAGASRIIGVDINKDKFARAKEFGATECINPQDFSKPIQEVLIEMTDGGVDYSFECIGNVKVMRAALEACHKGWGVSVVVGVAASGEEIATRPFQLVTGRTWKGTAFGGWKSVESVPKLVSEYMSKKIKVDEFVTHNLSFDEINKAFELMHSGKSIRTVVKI

Series [18] has as its target T2, 3-hydroxyisobutyrate dehydrogenase, mitochondrial (Homo sapiens) (UniProt P31937).
T2 sequence (whole entry): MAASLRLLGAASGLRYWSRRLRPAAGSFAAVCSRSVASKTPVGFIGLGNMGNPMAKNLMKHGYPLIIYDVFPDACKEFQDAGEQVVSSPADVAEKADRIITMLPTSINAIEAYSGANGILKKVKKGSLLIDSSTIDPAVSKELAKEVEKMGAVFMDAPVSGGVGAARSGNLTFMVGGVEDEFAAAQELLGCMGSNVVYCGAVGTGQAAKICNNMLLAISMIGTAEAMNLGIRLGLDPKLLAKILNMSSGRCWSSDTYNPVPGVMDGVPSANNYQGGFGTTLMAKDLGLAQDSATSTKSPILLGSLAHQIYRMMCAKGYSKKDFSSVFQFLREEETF
The series is described as follows: Binding affinity to 3-hydroxyisobutyrate dehydrogenase in human MDA-MB-468 cells at 10 uM incubated for 2 hrs in presence of 2-[4-[(1S)-1-[[6-(10-aminodecyl)-4,5-dichloro-1-methyl-indole-2-carbonyl]amino]-2-hydroxy-ethyl]phenyl]sulfonylacetic acid by quantitative chemical proteomics assay. Format: cell-based.

Series [19] in a line: Protein binding in mouse plasma. Format: ADME, cell-free. Particulars: read-out: PPB (converted).
Series [20] can be described thus: Stability in rat liver microsomes relative to hepatic blood flow. The class given is ADME, Microsome. Particulars: read-out: Stability.
The target of series [21] is T2, 3-hydroxyisobutyrate dehydrogenase, mitochondrial (Homo sapiens). The series is described as follows: Binding affinity to 3-hydroxyisobutyrate dehydrogenase in human MDA-MB-468 cells at 10 uM incubated for 2 hrs in presence of 12-amino-2-[4-[(1S)-1-[(4,5-dichloro-1,6-dimethyl-indole-2-carbonyl)amino]-2-hydroxy-ethyl]phenyl]sulfonyl-dodecanoic acid by quantitative chemical proteomics assay. The class given is cell-based.

The structures appear in SMILES notation. Values after ≈ are worked out from the molar mass of the structure shown. Active and inactive are the calls of the source. No cut-off for these calls is given here.

Broadly, the half-life is how long it takes for the measured level to halve. A low value points to rapid decline. The term IC50 denotes the concentration that gives 50% inhibition. `CCOC(=O)CS(=O)(=O)c1ccc([C@@H](CO)NC(=O)c2cc3c(Cl)c(Cl)c(C)cc3n2C)cc1`: the half-life is 4.6 h in series [1] and 2.25 h in series [6]. Further, the Drug uptake result in series [2] is listed as “Tde”. Also, the IC50 is 2 µM in series [3] and 0.029 µM in series [4]. Further, in series [5], the “fold change (FC)” value is on record as “<= 140”.
In general, solubility refers to the concentration that dissolves in the medium under given conditions. Read a high solubility as much dissolved substance. In the case of `Cc1cc2c(cc(C(=O)N[C@H](CO)c3ccc(S(=O)(=O)CC(=O)O)cc3)n2C)c(Cl)c1Cl`, the permeability in series [7] and in [11] was 0.2 ×10⁻⁶ cm/s each time. For the same molecule, the solubility in series [8] stood at 64 mg/mL (≈ 128 mM); in [15], 59 mg/mL (≈ 118 mM). Besides, the hepatic extraction ratio in series [9] is 0.38; in series [12], under 0.24; in series [16], under 0.23; in series [20], under 0.24. Also, in [10], the Ratio came out at 11. In addition, in series [3], the IC50 amounted to 2.2 µM. Moreover, the fraction unbound in [13] is 0.17; in series [19] it was 0.004. For the same molecule, the outcome in series [14], in series [17], in [18] and in series [21] was Active.
